Assay results reported in US20250000874A1, “BACTERIAL METABOLITES AND THEIR USE IN REDUCING INFLAMMATION” (LOYOLA UNIVERSITY OF CHICAGO, priority 2023, published 2025).
“Also recorded” adds a separate entry of the source.

Experiments:
[1] = tested on: human corneal epithelial cells (HCECs); test: MQ on IL-6 production in HCECs in response to TLR agonists; type: cell-based; details: for production and secretion of IL6: MQ 50 μM overnight
Method: FIG. 26. MQ Reduces IL-6 Response to Toll 3 and Toll 5 Agonist. HCECs were cultured at a uniform density and allowed to adhere. Cells were then incubated overnight in MQ at a concentration of […] at 37° C. The following day, the HCECs were stimulated with FLA at a concentration of 100 ng/ml or P (I:C) at 500 μg/mL for four hours. Supernatants were collected and IL-6 concentrations were determined via ELISA.
To investigate the effects of MQ on cytokine activity, human corneal epithelial cells (HCECs) were stimulated with various TLR agonists and the production of cytokines was measured via ELISA. HCECs were seeded at a density of 2×10^5 cells/well and were treated overnight with MQ at a concentration of 50 μM and the following day they were stimulated with Flagellin (FLA) at 100 ng/ml or Poly (I:C) at a concentration of 500 μg/ml. After 4 hours, supernatant was collected and the concentration of IL-6 was determined via ELISA.
The effects of MQ on various other TLR pathways including: TLR 1/2 (PAM3CSK4), TLR 2/6 (FSL) TLR 4 (Lipopolysaccharide), TLR 7 (Imiquimod), and TLR 9 (ODN2006) was also investigated.

THP-1 cells = test: NC on TNFα release in THP-1 cells in response to TLR agonists; type: cell-based, human; details: 50 μM NC 18 hours
Method: FIG. 27A and FIG. 27B. Metabolite NC on TNFα release in response to LPS in human and murine macrophages in vitro. Macrophages were plated at a uniform density of 0.2×10^6 cells/mL in 24 well plates. These cells (FIG. 27A) were allowed to adhere, or, in the case of THP-1 cells FIG. 27B), differentiate using PMA. They were then treated for 18 hours with 50 μM of metabolite NC before being stimulated with 0.1 ug of LPS-EK. Supernatant was collected between 4-6 hours after addition of LPS and debris was removed via centrifugation at 1250 rpm for 5 minutes. TNFα was quantified in the supernatant using sandwich ELISA with standards of known concentrations.
FIG. 28A and FIG. 28B. Metabolite NC on TNFα release in macrophages in response to various TLR agonists. Raw 264.7 cells (FIG. 28A) and THP-1 FIG. 28B) cells were plated at a uniform density of 0.2×10^6 cells per mL and stimulated with various TLR agonists: Pam3CSK4, Poly I:C, LPS, Fla, FSL-1, imiquimod (ImiQ), and ODN-2006. NC reduced TNFα release in response to TLR3 (p<0.0001 via student's t-test for both Raw 264.7 cells and THP-1 cells) and TLR4 agonists in both cell lines.
To investigate the effects of compound NC, macrophages were stimulated with LPS, an endotoxin associated with gram-negative bacteria. Human and murine macrophage-like cells (THP-1 cells and Raw 264.7 cells, respectively) were plated in 24 well plates at a uniform density of 0.2×10^6 cells/mL. Following 18 hours of pretreatment with 50 μM metabolite NC, they were stimulated with 10 μg/mL of LPS. After 4-6 hours, supernatant was collected and TNFα was quantified using sandwich ELISA. NC reduces TNFα release from both THP-1 and Raw 264.7 macrophage-like cells in response to TLR4 agonist LPS in vitro.
Metabolite NC reduces inflammation in response to TLR4 agonist LPS. To further investigate the specificity of NC's action in TLR signaling, Raw 264.7 (FIG. 28A) and THP-1 (FIG. 28B) cells were once again plated at a uniform density of 0.2×10^6 cells/mL, treated with 50 μM metabolite NC for 18 hours, and stimulated with agonists for TLR1/2, TLR3, TLR4, TLR5, TLR6/2, TLR7 and TLR9. After 4-6 hours, supernatant was collected and TNFα was quantified via sandwich ELISA.

mouse peritonitis = test: LPS-induced mouse peritonitis model, peritoneal neutrophils by flow cytometry (Ly6G); type: in vivo; details: JE i.p. two consecutive days, LPS i.p. day 3, 4 hours, vs PBS
Method: FIG. 4A-4B. Bacterial Supernatant <10 kD fraction inhibits mouse peritonitis in vivo. 6-week old B6 mice were i.p. injected with <10 kD fraction from LF, TS medium, or PBS (500 μL/dose) at day 0 and day 1. At day 2, mice were given LPS (10 μg/mouse) or PBS via i.p. […] (FIG. 4A) The recruited neutrophils were quantified by flow cytometry using the neutrophil markers Ly6G and data were analyzed by FlowJo Software. (FIG. 4B) Neutrophil numbers are shown as mean±s.d., **p<0.01, n=3 per group.
FIG. 9A-9C. FACS representation of mouse peritonitis model. Histograms were made from FACS gating of cells collected from the peritoneal cavity. (FIG. 9A) Mice were pre-treated for two consecutive days with compound JE and then received LPS. (FIG. 9B) Mice received only LPS. (FIG. 9C) Another group received PBS injected for two consecutive days to serve as a negative control. […]
Commensal bacteria are non-invading bacteria that habit the host gastrointestinal tract without causing harm. […] We then measured the ability of the <10 kDa fraction to cross intestinal epithelium with the tight junctions without disrupting the integrity. […] To determine if the <10 kD fraction suppresses LPS-induced inflammatory responses in vivo, we intraperitoneally injected the <10 kDa fraction into C57/Bl6 mice followed by LPS and then analyzed peritoneal numbers of neutrophils by flow cytometry. […]

**Q.** How did the “production and secretion of IL6” value ([1]; Flagellin (FLA) 100 ng/ml 4 hours) turn out when Prednicarbate [MQ] was run?
**A.** The value was “reduced”.

**Q.** What about the “production and secretion of IL6” value ([1]; Poly (I:C) 500 μg/ml 4 hours) of the same molecule?
**A.** The value was “reduced”.

**Q.** And the “production of IL-6” value ([1]; MQ alone, 50 μM overnight, no TLR agonist)?
**A.** The value was “not found to increase”.

**Q.** What about the “cytokine production, other TLR pathways” value ([1]; PAM3CSK4, FSL, Lipopolysaccharide, Imiquimod, ODN2006, various concentrations) of the same molecule?
**A.** Its value is “did not exhibit any significant inhibitory effects”.

**Q.** With CCCCCCCCCCCCCCCC(=O)N[C@@H](C(=O)O)[C@H](C)O [NC, N-Palmitoyl-D-Threonine] as the molecule, how does the “TNFα release in response to TLR3 agonist Poly I:C” value (THP-1 cells; 4-6 hours, ELISA) read?
**A.** The value was “reduced”.

**Q.** And the “TNFα release in response to TLR4 agonist LPS” value (THP-1 cells; LPS, 4-6 hours, ELISA)?
**A.** Its value is “reduced; also recorded: significantly less”.

**Q.** What about the “TNFα release in the absence of LPS stimulation” value (THP-1 cells; unstimulated) of the same molecule?
**A.** The value was “did not increase; also recorded: does not increase”.

**Q.** And the “TNFα release in response to other TLR agonists” value (THP-1 cells; TLR1/2, TLR5, TLR6/2, TLR7, TLR9 agonists)?
**A.** Its value is “did not significantly reduce”.

**Q.** For CC(=O)O[C@@H]1CC[C@H]2[C@H]3CC[C@H]4CC(F)(F)CC[C@]4(C)[C@H]3CC[C@]12C [JE, 3,3-Difluoro-5-alpha-androstan-17-beta-yl acetate], which peritoneal neutrophil recruitment (mouse peritonitis) is on record?
**A.** The peritoneal neutrophil recruitment was “reduced”.
